Source: patent US10793526B2, “Hydantoin derivative compounds, methods of use and methods of treatment” (University of South Florida, priority 2016, dated 2020)
Values belong to the compound of their own block, whether it stands above or below them.

Experiments:
[1] = test system: methicillin-resistant S. aureus (MRSA, ATCC 33591); experiment: Minimum inhibitory concentration (MIC) assay, MRSA; type: cell-based, Staphylococcus aureus; details: Gram positive, ATCC 33591, 16 h incubation; for MIC: Staphylococcus aureus, read-out: MIC (μg/mL) MRSA
Method: (§1) Minimum inhibitory concentrations (MICs) assay.^2
(§2) All compounds were tested against six different bacteria strains: methicillin-resistant S. aureus (MRSA, ATCC 33591), E. coli (ATCC 25922), methicillin-resistant S. epidermidis (MRSE, RP62A), K. pneumoniae (ATCC 13383), vancomycin-resistant Enterococcus faecalis (VREF, ATCC 700802), P. aeruginosa (ATCC 27853). One colony of each bacteria was inoculated in 4 mL TSB buffer at 37° C. overnight, which was then diluted 100 times, and the bacteria were allowed to grow to the mid-logarithmic phase. 50 μL hydantoin compounds in 2-fold serial dilution of TSB were added in the 96-well plate, then 50 μL diluted bacterial in TSB medium (1×10^6 CFU/mL) was added to each well. After 16 h of incubation at 37° C., the absorption at 600 nm wavelength on a Biotek Synergy HT microtiter plate reader was recorded. Minimum inhibitory concentrations were determined as the lowest concentrations that inhibited bacteria growth completely.

[2] = test system: methicillin-resistant S. epidermidis (MRSE, RP62A); experiment: Minimum inhibitory concentration (MIC) assay, MRSE; type: cell-based, Staphylococcus epidermidis; details: Gram positive, 16 h incubation; for MIC: Staphylococcus epidermidis, MRSE, read-out: MIC (μg/mL) MRSE
Method: as §1, §2

[3] = test system: vancomycin-resistant Enterococcus faecalis (VREF, ATCC 700802); experiment: Minimum inhibitory concentration (MIC) assay, VREF; type: cell-based; details: 16 h incubation; for MIC: Enterococcus faecalis, ATCC700802, Gram positive, read-out: MIC (μg/mL) VREF; for MIC (μg/mL) VREF: Gram positive
Method: as §1, §2

E. coli (ATCC 25922) = experiment: Minimum inhibitory concentration (MIC) assay, E. coli; type: cell-based, Escherichia coli; details: 16 h incubation; for MIC: Escherichia coli, ATCC25922, Gram negative, read-out: MIC (μg/mL) E. coli; for MIC (μg/mL) E. coli: Gram negative
Method: as §1, §2

[4] = test system: P. aeruginosa (ATCC 27853); experiment: Minimum inhibitory concentration (MIC) assay, P. aeruginosa; type: cell-based, Pseudomonas aeruginosa; details: for MIC: Pseudomonas aeruginosa, ATCC27853, read-out: MIC (μg/mL) P.A.; for MIC / MIC (μg/mL) P.A.: Gram negative, ATCC 27853, 16 h incubation
Method: as §1, §2

[5] = test system: K. pneumoniae (ATCC 13383); experiment: Minimum inhibitory concentration (MIC) assay, K. pneumoniae; type: cell-based, Klebsiella pneumoniae; details: 16 h incubation; for MIC: Klebsiella pneumoniae, ATCC13383, Gram negative, read-out: MIC (μg/mL) K.P.; for MIC (μg/mL) K.P.: Gram negative
Method: as §1, §2

[6] = test system: panel of Gram-positive and Gram-negative bacteria; experiment: Antimicrobial activity against the whole panel of bacteria; type: cell-based; details: for antimicrobial activity across the tested bacterial strains: all tested strains; for antibacterial activity of compounds with HPLC RT values less than 26 min: statement relating activity to retention time
Method: as §1, §2

Compound: CCCCCCCCCC(=O)N[C@@H](CCCCN)CN1CC(=O)N(CCCC)C1=O [Compound 5, (S)—N-(6-amino-1-(3-butyl-2,4-dioxoimidazolidin-1-yl)hexan-2-yl)decanamide]
MIC [1]: > 50 µg/mL
MIC [2]: > 50 µg/mL
MIC [3]: > 50 µg/mL
MIC (E. coli (ATCC 25922)): > 50 µg/mL
MIC [4]: > 50 µg/mL
MIC [5]: > 50 µg/mL
antimicrobial activity across the tested bacterial strains [6]: doesn't have any antimicrobial activity
antibacterial activity of compounds with HPLC RT values less than 26 min [6]: no apparent antibacterial activity

Compound: CCCCCCCCCC(=O)N[C@@H](CCCCN)CN1CC(=O)N(CC)C1=O [Compound 1, (S)—N-(6-amino-1-(3-ethyl-2,4-dioxoimidazolidin-1-yl)hexan-2-yl)decanamide]
MIC [1]: > 50 µg/mL
MIC [2]: > 50 µg/mL
MIC [3]: > 50 µg/mL
MIC (E. coli (ATCC 25922)): > 50 µg/mL
MIC [4]: > 50 µg/mL
MIC [5]: > 50 µg/mL
antimicrobial activity across the tested bacterial strains [6]: doesn't exhibit any activity
antibacterial activity of compounds with HPLC RT values less than 26 min [6]: no apparent antibacterial activity

Compound: CCCCCCCCCC(=O)N[C@@H](CCCCN)CN1CC(=O)N(c2ccc(OC)cc2)C1=O [Compound 17, (S)—N-(6-amino-1-(3-(4-methoxyphenyl)-2,4-dioxoimidazolidin-1-yl)hexan-2-yl)decanamide]
MIC [1]: > 50 µg/mL
MIC [2]: > 50 µg/mL
MIC [3]: > 50 µg/mL
MIC (E. coli (ATCC 25922)): > 50 µg/mL
MIC [4]: > 50 µg/mL
MIC [5]: > 50 µg/mL
antibacterial activity of compounds with HPLC RT values less than 26 min [6]: no apparent antibacterial activity

Compound: CCCCCCCCCCCCCCCC(=O)N[C@@H](CCCCN)CN1CC(=O)N(C23CC4CC(CC(C4)C2)C3)C1=O [Compound 16, N—((S)-1-(3-((3R,5R,7R)-adamantan-1-yl)-2,4-dioxoimidazolidin-1-yl)-6-aminohexan-2-yl) palmitamide]
MIC (μg/mL) MRSA [1]: >50 µg/mL
MIC (μg/mL) MRSE [2]: >50 µg/mL
MIC (μg/mL) VREF [3]: >50 µg/mL
MIC (μg/mL) E. coli (E. coli (ATCC 25922)): >50 µg/mL
MIC (μg/mL) P.A. [4]: >50 µg/mL
MIC (μg/mL) K.P. [5]: >50 µg/mL

Compound: CCCCCCCCCCCC(=O)N[C@@H](CCCCN)CN1CC(=O)N(C23CC4CC(CC(C4)C2)C3)C1=O [Compound 14, N—((S)-1-(3-((3R,5R,7R)-adamantan-1-yl)-2,4-dioxoimidazolidin-1-yl)-6-aminohexan-2-yl) dodecanamide]
MIC (μg/mL) MRSA [1]: 6.25 µg/mL
MIC (μg/mL) MRSE [2]: 6.25 µg/mL
MIC (μg/mL) VREF [3]: 6.25 µg/mL
MIC (μg/mL) E. coli (E. coli (ATCC 25922)): 12.5 µg/mL
MIC (μg/mL) P.A. [4]: >50 µg/mL
MIC (μg/mL) K.P. [5]: >50 µg/mL

Compound: CCCCCCCCCCCCCC(=O)N[C@@H](CCCCN)CN1CC(=O)N(C23CC4CC(CC(C4)C2)C3)C1=O [Compound 15, N—((S)-1-(3-((3R,5R,7R)-adamantan-1-yl)-2,4-dioxoimidazolidin-1-yl)-6-aminohexan-2-yl) tetradecanamide]
MIC (μg/mL) MRSA [1]: 3.12 µg/mL
MIC (μg/mL) MRSE [2]: 3.15 µg/mL
MIC (μg/mL) VREF [3]: 6.25 µg/mL
MIC (μg/mL) E. coli (E. coli (ATCC 25922)): >50 µg/mL
MIC (μg/mL) P.A. [4]: >50 µg/mL
MIC (μg/mL) K.P. [5]: >50 µg/mL

Compound: CCCCCCCCCCCC(=O)N[C@@H](Cc1ccccc1)CN1CC(=O)N(c2cccc(Cl)c2)C1=O [Compound 25, (S)—N-(1-(3-(3-chlorophenyl)-2,4-dioxoimidazolidin-1-yl)-3-phenylpropan-2-yl)dodecanamide]
MIC [1]: > 50 µg/mL
MIC [2]: > 50 µg/mL
MIC [3]: > 50 µg/mL
MIC (E. coli (ATCC 25922)): > 50 µg/mL
MIC [4]: > 50 µg/mL
MIC [5]: > 50 µg/mL
antimicrobial activity across the tested bacterial strains [6]: fails to show any antimicrobial activity
antibacterial activity of compounds with HPLC RT values less than 26 min [6]: no apparent antibacterial activity

Compound: CCCCCCCCCCCC(=O)N[C@@H](CCCCN)CN1CC(=O)N(CC)C1=O [Compound 2, (S)—N-(6-amino-1-(3-ethyl-2,4-dioxoimidazolidin-1-yl)hexan-2-yl)dodecanamide]
MIC [1]: > 50 µg/mL
MIC [2]: > 50 µg/mL
MIC [3]: > 50 µg/mL
MIC (E. coli (ATCC 25922)): 12.5 µg/mL
MIC [4]: > 50 µg/mL
MIC [5]: > 50 µg/mL
antibacterial activity of compounds with HPLC RT values less than 26 min [6]: no apparent antibacterial activity

Further compounds by falling MIC [1], results first:

MIC [1]: 12.5 µg/mL
MIC [2]: 6.25 µg/mL
MIC [3]: 12.5 µg/mL
MIC (E. coli (ATCC 25922)): 6.25 µg/mL
MIC [4]: > 50 µg/mL
MIC [5]: 25 µg/mL
MIC ([6]; range over most strains of the panel, read-out: MICs against most of bacteria): 6.25 to 25 µg/mL
Compound: O=C1CN(/N=C/c2ccc([N+](=O)[O-])o2)C(=O)N1 [Compound 26, nitrofurantoin, reference compound]

MIC [1]: 12.5 µg/mL
MIC [2]: 12.5 µg/mL
MIC [3]: 12.5 µg/mL
MIC (E. coli (ATCC 25922)): > 50 µg/mL
MIC [4]: > 50 µg/mL
MIC [5]: > 50 µg/mL
Compound: CCCCCCCCCCCCCCCC(=O)N[C@@H](CCCCN)CN1CC(=O)N(c2cccc(Cl)c2)C1=O [Compound 24, (S)—N-(6-amino-1-(3-(3-chlorophenyl)-2,4-dioxoimidazolidin-1-yl)hexan-2-yl)palmitamide]

MIC [1]: 12.5 µg/mL
MIC [2]: 12.5 µg/mL
MIC [3]: 12.5 µg/mL
MIC (E. coli (ATCC 25922)): > 50 µg/mL
MIC [4]: > 50 µg/mL
MIC [5]: > 50 µg/mL
Compound: CCCCCCCCCCCCCC(=O)N[C@@H](CCCCN)CN1CC(=O)N(c2cccc(Cl)c2)C1=O [Compound 23, (S)—N-(6-amino-1-(3-(3-chlorophenyl)-2,4-dioxoimidazolidin-1-yl)hexan-2-yl)tetradecanamide]

MIC [1]: 6.25 µg/mL
MIC [2]: 6.25 µg/mL
MIC [3]: 6.25 µg/mL
MIC (E. coli (ATCC 25922)): 6.25 µg/mL
MIC [4]: > 50 µg/mL
MIC [5]: 12.5 µg/mL
Compound: CCCCCCCCCCCCCC(=O)N[C@@H](CCCCN)CN1CC(=O)N(CCCC)C1=O [Compound 7, (S)—N-(6-amino-1-(3-butyl-2,4-dioxoimidazolidin-1-yl)hexan-2-yl)tetradecanamide]

MIC [1]: 6.25 µg/mL
MIC [2]: 6.25 µg/mL
MIC [3]: 6.25 µg/mL
MIC (E. coli (ATCC 25922)): > 50 µg/mL
MIC [4]: > 50 µg/mL
MIC [5]: > 50 µg/mL
Compound: CCCCCCCCCCCCCCCC(=O)N[C@@H](CCCCN)CN1CC(=O)N(CCCC)C1=O [Compound 8, (S)—N-(6-amino-1-(3-butyl-2,4-dioxoimidazolidin-1-yl)hexan-2-yl)palmitamide]

MIC [1]: 6.25 µg/mL
MIC [2]: 6.25 µg/mL
MIC [3]: 6.25 µg/mL
MIC (E. coli (ATCC 25922)): 6.25 µg/mL
MIC [4]: > 50 µg/mL
MIC [5]: 25 µg/mL
Compound: CCCCCCCCCCCCCC(=O)N[C@@H](CCCCN)CN1CC(=O)N(c2ccc(OC)cc2)C1=O [Compound 19, (S)—N-(6-amino-1-(3-(4-methoxyphenyl)-2,4-dioxoimidazolidin-1-yl)hexan-2-yl)tetradecanamide]

MIC [1]: 3.12 µg/mL
MIC [2]: 3.12 µg/mL
MIC [3]: 3.12 µg/mL
MIC (E. coli (ATCC 25922)): 3.12 µg/mL
MIC [4]: > 50 µg/mL
MIC [5]: 12.5 µg/mL
Compound: CCCCCCCCCCCCCCCC(=O)N[C@@H](CCCCN)CN1CC(=O)N(CC)C1=O [Compound 4, (S)—N-(6-amino-1-(3-ethyl-2,4-dioxoimidazolidin-1-yl)hexan-2-yl)palmitamide]
activity toward Pseudomonas aeruginosa ([4]; under the tested condition): abolishes its activity
antibacterial activity of compounds with HPLC RT values less than 26 min [6]: no apparent antibacterial activity

MIC [1]: 3.12 µg/mL
MIC [2]: 6.25 µg/mL
MIC [3]: 6.25 µg/mL
MIC (E. coli (ATCC 25922)): 12.5 µg/mL
MIC [4]: > 50 µg/mL
MIC [5]: 6.25 µg/mL
Compound: CCCCCCCCCCCCCC(=O)N[C@@H](CCCCN)CN1CC(=O)N(C2CCCCC2)C1=O [Compound 11, (S)—N-(6-amino-1-(3-cyclohexyl-2,4-dioxoimidazolidin-1-yl)hexan-2-yl)tetradecanamide]

MIC [1]: 3.12 µg/mL
MIC [2]: 25 µg/mL
MIC [3]: 25 µg/mL
MIC (E. coli (ATCC 25922)): > 50 µg/mL
MIC [4]: > 50 µg/mL
MIC [5]: > 50 µg/mL
Compound: CCCCCCCCCCCCCCCC(=O)N[C@@H](CCCCN)CN1CC(=O)N(C2CCCCC2)C1=O [Compound 12, (S)—N-(6-amino-1-(3-cyclohexyl-2,4-dioxoimidazolidin-1-yl)hexan-2-yl)palmitamide]

MIC [1]: 3.12 µg/mL
MIC [2]: 6.25 µg/mL
MIC [3]: 6.25 µg/mL
MIC (E. coli (ATCC 25922)): > 50 µg/mL
MIC [4]: > 50 µg/mL
MIC [5]: > 50 µg/mL
Compound: CCCCCCCCCCCCCCCC(=O)N[C@@H](CCCCN)CN1CC(=O)N(c2ccc(OC)cc2)C1=O [Compound 20, (S)—N-(6-amino-1-(3-(4-methoxyphenyl)-2,4-dioxoimidazolidin-1-yl)hexan-2-yl)palmitamide]
